The results in this text go back to patent US20110143406A1, “Novel (S,S) -Butanediol Dehydrogenase, Gene for the Same, and Use of the Same” (Kaneka Corporation, priority 2006, published 2011).

Read-outs that look alike come from different tables or passages of the source.

Holding throughout (assay type): biochemical, Ochrobactrum sp. KNKc71-3
In series [1] the test system is ROB ((S,S)-butanediol dehydrogenase).
For series [2] the test system is unchanged. Conditions: reduction; each compound 1 mM, NADH 0.167 mM, phosphate buffer pH 5.5, 30° C., 3 minutes; activity against 2,3-butanedione taken as 100.
Series [3] shares this test system. The series can be described thus: Substrate specificity of ROB: oxidation activity. Conditions: each compound 10 mM, NAD+ 2 mM, phosphate buffer pH 8.0, 30° C., 1 minute, activity against 2,3-butanediol taken as 100. As for the experimental part:
Using the purified ROB obtained in Example 1, oxidation activity measurements were carried out by adding NAD^+ (2 mM), each compound (10 mM) shown in Table 2 and the enzyme solution to 100 mM phosphate buffer (pH 8.0), the reaction was allowed to proceed at 30° C. for 1 minute, and the increase in absorbance at the wavelength 340 nm was measured. The relative activity data are summarized in Table 2, with the activity against 2,3-butanediol being taken as 100.

Series [4] in a line: Optimum temperature for action of ROB. Conditions: (2S,3S)-2,3-butanediol oxidation, measured at 10 to 70° C., pH 8.0. The protocol: Using the purified ROB obtained in Example 1, (2S,3S)-2,3-butanediol oxidation activity measurements were carried out at 10 to 70° C. In the activity measurements, (2S,3S)-2,3-butanediol (0.1 M), NAD^+ 2 mM and the enzyme solution were added to 100 mM phosphate buffer (pH 8.0), the reaction was allowed to proceed at 10 to 70° C. for 1 minute, and the increase in absorbance at the wavelength 340 nm were measured.

Series [5] can be described thus: Specific oxidation activity of purified enzyme. Conditions: (2S,3S)-2,3-butanediol 100 mM, NAD+ 2 mM, pH 8.0, 30° C. As for the experimental part: In the examples described below, the oxidation activity of (S,S)-butanediol dehydrogenase was determined by adding (2S,3S)-2,3-butanediol (100 mM), NAD^+ (2 mM) and an enzyme solution to 100 mM phosphate buffer (pH 8.0) and measuring the increase in absorbance at the wavelength 340 nm at 30° C. The enzyme activity reducing 1 μmol of NAD^+ to NADH per minute was defined as 1 unit.
Ammonium sulfate was added to this active fraction to a concentration of 1 M, and the mixture was submitted to a Phenyl-TOYOPEARL 650M (product of Tosoh) column (50 ml) equilibrated in advance with 10 mM phosphate buffer (pH 7.0) containing 1 M ammonium sulfate for adsorption of the enzyme. After washing the column with the same buffer, the active fraction was eluted on a linear gradient from 1 M to 0 M ammonium sulfate. Ammonium sulfate was added to this active fraction to a concentration of 1.2 M, and the mixture was submitted to a Butyl-TOYOPEARL 650S (product of Tosoh) column (25 ml) equilibrated in advance with 10 mM phosphate buffer (pH 7.0) containing 1.2 M ammonium sulfate for adsorption of the enzyme. After washing the column with the same buffer, the active fraction was eluted on a linear gradient from 1.2 M to 0 M ammonium sulfate. This active fraction was analyzed by sodium dodecyl sulfate-polyacrylamide electrophoresis and found to give a single band. […]

In series [6] the test system is ROB ((S,S)-butanediol dehydrogenase). The protocol: Using the purified ROB obtained in Example 1, oxidation activity measurement were carried out using, as substrates, optical isomers of each of 2-butanol, 2-pentanol, 1,2-propanediol, 2,3-butanediol and 3-chloro-1,2-propanediol. NAD^+ (2 mM), each compound (10 mM) and the enzyme solution were added to 100 mM phosphate buffer (pH 8.0), the reaction was allowed to proceed at 30° C. for 1 minute, and the increase in absorbance at the wavelength 340 nm.
This is another data set of the same source.

The mark [7] stands for this setting: reagent 1.0 mM, (2S,3S)-2,3-butanediol 0.1 M, NAD+ 2 mM, pH 8.0, 30° C., reagent-free activity taken as 100.
Setting [8] is: oxidation, each compound 10 mM, NAD+ 2 mM, pH 8.0, 30° C., 1 minute, activity against (2S,3S)-2,3-butanediol taken as 100.

On to `O=S(=O)([O-])[O-].[Mg+2]` [MgSO4], for which, in series [1] (setting [7]), the “Relative activity (%)” value was 91%.
On to `CCCC(C)=O` [2-pentanone], for which the “Relative activity (%)” value in series [2] came to 2.8%.
On to `CCO` [Ethanol], for which the “Relative activity (%)” value in series [3] was determined as 0%.
For `O=C(O)c1cc[c]([Hg][Cl])cc1` [p-chloromercuribenzoate], the “Relative activity (%)” value in series [1] (setting [7]) is 84%.
As to `CCCCO` [1-butanol], the “Relative activity (%)” value in series [3] stood at 0%.
On the same count and under the same terms, the result for `CC(O)CCl` (stereo not drawn) [1-chloro-2-propanol] reads 7.7%.
Take `[Ca+2].[Cl-].[Cl-]` [CaCl2]: the “Relative activity (%)” value in series [1] (setting [7]) was 86%.
Turning to “ROB: purified (S,S)-butanediol dehydrogenase from Ochrobactrum sp. KNKc71-3, amino acid sequence SEQ ID NO:1”, the “optimum temperature for the activity” value in series [4] amounted to 70 °C. Besides, the specific activity result in series [5] is listed as “about 119 U/mg-protein”.
As to `C[C@H](O)[C@H](C)O` [(2S,3S)-2,3-butanediol], the “Relative activity (%)” value in series [6] (setting [8]) is 100%.
`CC(O)C(C)O` (stereo not drawn) [2,3-butanediol]: the “Relative activity (%)” value in series [3] is on record as 100%.
For `C[C@@H](O)[C@@H](C)O` [(2R,3R)-2,3-butanediol], the “Relative activity (%)” value in series [6] (setting [8]) is reported as 0.6%.
Take `O=S(=O)(F)Cc1ccccc1` [Phenylmethylsulfonyl fluoride]: the “Relative activity (%)” value in series [1] (setting [7]) stood at 75%.
Turning to `CCC(O)CC` [3-pentanol], in series [3], the “Relative activity (%)” value turned out to be 3.3%.
The same measure, in the same setting: the result for `CCCC(C)O` (stereo not drawn) [2-pentanol] reads 58.8%.
As for `CCOC(=O)C(Cl)C(C)=O` (stereo not drawn) [Ethyl 2-chloroacetoacetate], the “Relative activity (%)” value in series [2] amounted to 58.5%.
Turning to `CC[C@H](C)O` [(S)-2-butanol], the “Relative activity (%)” value in series [6] (pH 8) is listed as 44.2%.
In the case of `CC(=O)C(C)O` (stereo not drawn) [Acetoin], the “Relative activity (%)” value in series [3] is listed as 0.4%.
Consider `O=S(=O)([O-])[O-].[Cu+2]` [CuSO4], for which the “Relative activity (%)” value in series [1] (setting [7]) is 81%.
As to `CO` [Methanol], in series [3], the “Relative activity (%)” value came to 0%.
Still for that read-out and setting: the result for `CCC(C)O` (stereo not drawn) [2-butanol] reads 40.4%.
With `CC(=O)C(C)=O` [2,3-butanedione], in series [2], the “Relative activity (%)” value is reported as 100%.
In the case of `CC(=O)[O-].[Na+]` [Sodium acetate], the “Relative activity (%)” value in series [1] (pH 8) was 96%.
Take `[Cl][Mn][Cl]` [MnCl2]: in series [1] (setting [7]), the “Relative activity (%)” value is reported as 87%.
As to `OCC(O)CCl` (stereo not drawn) [3-chloro-1,2-propanediol], the “Relative activity (%)” value in series [3] is 3.9%.
The same measure, in the same setting: the result for `CC(O)Cc1ccccc1` (stereo not drawn) [1-phenyl-2-propanol] reads 43.0%.
Turning to `C[C@H](O)CO` [(S)-1,2-propanediol], in series [6] (setting [8]), the “Relative activity (%)” value is given as 16.7%.
Consider `CCOC(=O)C(C)O` (stereo not drawn) [Ethyl lactate], for which the “Relative activity (%)” value in series [3] is 1.6%.
On the same count and under the same terms, the result for `CCCCCCC(C)O` (stereo not drawn) [2-octanol] reads 59.6%.
Take `CC[C@@H](C)O` [(R)-2-butanol]: the “Relative activity (%)” value in series [6] (pH 8) is recorded as 3.2%.
In the case of `O=S(=O)([O-])[O-].[Zn+2]` [ZnSO4], in series [1] (setting [7]), the “Relative activity (%)” value came out at 88%.
Take `O=C(O)CN(CCN(CC(=O)O)CC(=O)O)CC(=O)O` [EDTA]: in series [1] (pH 8), the “Relative activity (%)” value is 95%.
Take `CCCO` [1-propanol]: in series [3], the “Relative activity (%)” value was determined as 0%.
Consider `CC(O)CO` (stereo not drawn) [1,2-propanediol], for which, in series [3], the “Relative activity (%)” value was found to be 57.9%.
`[Cl-].[Cl-].[Co+2]` [CoCl2]: the “Relative activity (%)” value in series [1] (pH 8) was 66%.
Take `CC(O)C(C)O` (stereo not drawn) [meso-2,3-butanediol]: the “Relative activity (%)” value in series [6] (setting [8]) is given as 38.9%.
Take `CCCCC(C)=O` [2-hexanone]: the “Relative activity (%)” value in series [2] is 2.8%.
The same measure, in the same setting: the result for `CCC(C)=O` [2-butanone] reads 0.9%.
Regarding `CC(O)c1ccccc1` (stereo not drawn) [1-phenyl ethanol], the “Relative activity (%)” value in series [3] is on record as 6.8%.
The same measure, in the same setting: the result for `CCC(O)CO` (stereo not drawn) [1,2-butanediol] reads 8.2%.
For the molecule `CCC[C@H](C)O` [(S)-2-pentanol], the “Relative activity (%)” value in series [6] (setting [8]) was 58.9%.
On to `CCCCCCC(C)=O` [2-octanone], for which the “Relative activity (%)” value in series [2] came to 2.8%.
On to `COC(=O)C(C)O` (stereo not drawn) [Methyl lactate], for which the “Relative activity (%)” value in series [3] is listed as 0.9%.
On to `COC(=O)CC(C)=O` [Methyl acetoacetate], for which the “Relative activity (%)” value in series [2] is given as 65.1%.
With `OC[C@H](O)CCl` [(S)-3-chloro-1,2-propanediol], the “Relative activity (%)” value in series [6] (setting [8]) was 0.1%.
For `CC(O)CCCO` (stereo not drawn) [1,4-pentanediol], in series [3], the “Relative activity (%)” value stood at 3.3%.
For `CCCC(O)CO` (stereo not drawn) [1,2-pentanediol], the “Relative activity (%)” value in series [3] is given as 4.4%.
Consider `CC(=O)CO` [Hydroxyacetone], for which the “Relative activity (%)” value in series [2] stood at 17.9%.
For `CC(C)O` [2-propanol], in series [3], the “Relative activity (%)” value was determined as 5.1%.
For the molecule `CCC[C@@H](C)O` [(R)-2-pentanol], the “Relative activity (%)” value in series [6] (setting [8]) amounted to 2.9%.
For `COC(=O)C(C)=O` [Methyl pyruvate], the “Relative activity (%)” value in series [2] turned out to be 136%.
With `[Ba+2].[Cl-].[Cl-]` [BaCl2], in series [1] (setting [7]), the “Relative activity (%)” value was 56%.
With `CCOC(=O)CC(=O)CCl` [Ethyl 4-chloroacetoacetate], in series [2], the “Relative activity (%)” value came out at 21.7%.
The same measure, in the same setting: the result for `CCOC(=O)C(C)=O` [Ethyl pyruvate] reads 176%.
Take `CCN1C(=O)C=CC1=O` [N-ethylmaleimide]: the “Relative activity (%)” value in series [1] (pH 8) is 93%.
`CCCCCC(C)=O` [2-heptanone]: in series [2], the “Relative activity (%)” value is reported as 3.8%.
In the case of `[Cl][Hg][Cl]` [HgCl2], the “Relative activity (%)” value came out at 41% in series [1] (reagent 0.1 mM, (2S,3S)-2,3-butanediol 0.1 M, NAD+ 2 mM, pH 8.0, 30° C., reagent-free activity taken as 100) and 0% in series [1] (setting [7]).
For `CC(O)CCO` (stereo not drawn) [1,3-butanediol], the “Relative activity (%)” value in series [3] came out at 0.5%.
Take `C[C@@H](O)CO` [(R)-1,2-propanediol]: the “Relative activity (%)” value in series [6] (setting [8]) was 8.0%.
Take `O=C(CO)CCl` [1-chloro-3-hydroxyacetone]: the “Relative activity (%)” value in series [2] is recorded as 94.3%.
As to `O=[N+]([O-])[O-].[Ag+]` [AgNO3], the “Relative activity (%)” value in series [1] (setting [7]) was determined as 30%.
For `OC[C@@H](O)CCl` [(R)-3-chloro-1,2-propanedio], in series [6] (setting [8]), the “Relative activity (%)” value turned out to be 3.5%.
